Key:
C. elegans = assay: Movement; type: in vivo, Caenorhabditis elegans; details: for maximum velocity, 25% Percentile / maximum velocity, 75% Percentile / maximum velocity, Maximum / maximum velocity, Mean / maximum velocity, Median / maximum velocity, Minimum / mean velocity, 25% Percentile / mean velocity, 75% Percentile / mean velocity, Maximum / mean velocity, Mean / mean velocity, Median / mean velocity, Minimum / total distance traveled, 25% Percentile / total distance traveled, 75% Percentile / total distance traveled, Maximum / total distance traveled, Mean / total distance traveled, Median / total distance traveled, Minimum: 250 μM SIH or 200 μM Lip-1, 25° C; for total distance traveled, 25% Percentile / total distance traveled, 75% Percentile / total distance traveled, Maximum / total distance traveled, Mean / total distance traveled, Median / total distance traveled, Minimum: 30 second recording; for age-related decline in mean velocity: Kruskal-Wallis ANOVA H(7)=339.2, p<0.0001; for maximum velocity of aging animals: in vivo
Procedure: A developmentally synchronous population, derived from eggs laid over a 2-hour window, were cultured on NGA media at 25° C. for 48 h, and then as young adult worms were transferred onto three treatment plates for an additional 24 h. The treatment plates included NGM+0.5% (v/v) DMSO (vehicle control, Ctl), NGM+250 μM SIH, and NGM+200 μM Lip-1 (as described above).
Single worms were transferred to a 55 mm NGA assay plate devoid of a bacterial lawn, without a lid, and left to recover from the transfer for 2 minutes. Movement of the adults was then recorded using a stereomicroscope (Leica M80) with transmitted illumination from below. A 30 second video recording was captured using a 3 MP DFC290 HD digital camera (Leica Microsystems) at a rate of 30 frames per second. Pixel length was calibrated using a 25 μm grid slide (Microbrightfield, Inc). Recorded series were analysed using the wrMTrck plugin for ImageJ (www.phage.dk/plugins) and Fiji (a distribution of ImageJ).
The maximum velocity achieved was expressed as mm per second (as derived from the distance between displaced centroids per second). Additional metrics of movement were determined including mean velocity (mm s^−1) and (total) distance travelled (mm). These variables were collated in Prism (v7.0a GraphPad Software) and presented as a scatter plot with medians and interquartile range.

Wild type (N2) = assay: Fertility analysis; type: in vivo, Caenorhabditis elegans; details: treated from early adulthood/late L4; for Early fertility (first 24 hours): p>0.4
Procedure: Wild type (N2) adults (4-day post egg lay) were transferred to fresh plates for 30 minutes at 20° C. to establish a developmentally synchronous population. Adult nematodes were then removed, and eggs were then transferred to 25° C. As with the survival analyses, after 48 hours at 25° C., when worms were at the late L4/young adult stage individual nematodes were transferred to plates containing vehicle control, 250 μM SIH, or 200 μM Lip-1. After 24 hours, adult worms were transferred to fresh plates and transferred daily until the end of the fertile period. After allowing progeny to develop for 2 days at 20° C., they were then counted to determine daily and total fertility. Early fertility is determined by the number of progeny laid in the first 24-hour period. Differences in fertility (i.e. early and total reproductive output) were assessed using an ordinary one-way analysis of variance (ANOVA), followed by a Tukey's multiple comparison test (as implemented by Prism v7.0a, GraphPad Software).

Structure (SMILES) | maximum velocity, 25% Percentile (C. elegans; Day 4) [mm per second] | maximum velocity, 75% Percentile (C. elegans; Day 4) [mm per second] | maximum velocity, Maximum (C. elegans; Day 4) [mm per second] | maximum velocity, Mean (C. elegans; Day 4) [mm per second] | maximum velocity, Median (C. elegans; Day 4) [mm per second] | maximum velocity, Minimum (C. elegans; Day 4) [mm per second] | mean velocity, 25% Percentile (C. elegans; Day 4) [mm s-1] | mean velocity, 75% Percentile (C. elegans; Day 4) [mm s-1] | mean velocity, Maximum (C. elegans; Day 4) [mm s-1] | mean velocity, Mean (C. elegans; Day 4) [mm s-1] | mean velocity, Median (C. elegans; Day 4) [mm s-1] | mean velocity, Minimum (C. elegans; Day 4) [mm s-1] | total distance traveled, 25% Percentile (C. elegans; Day 4) [mm] | total distance traveled, 75% Percentile (C. elegans; Day 4) [mm] | total distance traveled, Maximum (C. elegans; Day 4) [mm] | total distance traveled, Mean (C. elegans; Day 4) [mm] | total distance traveled, Median (C. elegans; Day 4) [mm] | total distance traveled, Minimum (C. elegans; Day 4) [mm] | maximum velocity, 25% Percentile (C. elegans; Day 8) [mm per second] | maximum velocity, 75% Percentile (C. elegans; Day 8) [mm per second] | further results
O=C(N/N=C/c1ccccc1O)c1ccncc1 [SIH, Salicylaldehyde isonicotinoyl hydrazone] | 0.3442 | 0.4755 | 0.7127 | 0.392 | 0.3733 | 0.105 | 0.1307 | 0.1824 | 0.2629 | 0.1528 | 0.1545 | 0.02713 | 3.977 | 5.513 | 6.951 | 4.619 | 4.766 | 0.8402 | 0.174 | 0.3506 | maximum velocity, Maximum (C. elegans; Day 8): 0.6458 mm per second; maximum velocity, Mean (C. elegans; Day 8): 0.2847 mm per second; maximum velocity, Median (C. elegans; Day 8): 0.2513 mm per second; maximum velocity, Minimum (C. elegans; Day 8): 0.1028 mm per second; mean velocity, 25% Percentile (C. elegans; Day 8): 0.04028 mm s-1; mean velocity, 75% Percentile (C. elegans; Day 8): 0.1029 mm s-1; mean velocity, Maximum (C. elegans; Day 8): 0.1739 mm s-1; mean velocity, Mean (C. elegans; Day 8): 0.07262 mm s-1; mean velocity, Median (C. elegans; Day 8): 0.05813 mm s-1; mean velocity, Minimum (C. elegans; Day 8): 0.02239 mm s-1; total distance traveled, 25% Percentile (C. elegans; Day 8): 1.224 mm; total distance traveled, 75% Percentile (C. elegans; Day 8): 3.193 mm; total distance traveled, Maximum (C. elegans; Day 8): 5.235 mm; total distance traveled, Mean (C. elegans; Day 8): 2.192 mm; total distance traveled, Median (C. elegans; Day 8): 1.784 mm; total distance traveled, Minimum (C. elegans; Day 8): 0.6912 mm; age-related decline in mean velocity (C. elegans): attenuates the age-related decline in mean velocity; maximum velocity of aging animals (C. elegans): markedly improved; lifetime reproductive output (Wild type (N2)): no effect; Early fertility (first 24 hours) (Wild type (N2)): not altered
Clc1cccc(CNC2=Nc3ccccc3NC23CCNCC3)c1 [Lip-1, N-[(3-chlorophenyl)methyl]-spiro[piperidine-4,2′(1′H)-quinoxalin]-3′-amine] | 0.2711 | 0.4861 | 0.7204 | 0.37 | 0.3762 | 0.06351 | 0.05892 | 0.1839 | 0.2606 | 0.1244 | 0.1349 | 0.01219 | 1.797 | 5.397 | 7.817 | 3.685 | 4.126 | 0.07633 | 0.1478 | 0.2452 | maximum velocity, Maximum (C. elegans; Day 8): 0.5563 mm per second; maximum velocity, Mean (C. elegans; Day 8): 0.2084 mm per second; maximum velocity, Median (C. elegans; Day 8): 0.1922 mm per second; maximum velocity, Minimum (C. elegans; Day 8): 0.05622 mm per second; mean velocity, 25% Percentile (C. elegans; Day 8): 0.03386 mm s-1; mean velocity, 75% Percentile (C. elegans; Day 8): 0.06818 mm s-1; mean velocity, Maximum (C. elegans; Day 8): 0.1644 mm s-1; mean velocity, Mean (C. elegans; Day 8): 0.05407 mm s-1; mean velocity, Median (C. elegans; Day 8): 0.04763 mm s-1; mean velocity, Minimum (C. elegans; Day 8): 0.008319 mm s-1; total distance traveled, 25% Percentile (C. elegans; Day 8): 1.001 mm; total distance traveled, 75% Percentile (C. elegans; Day 8): 2.092 mm; total distance traveled, Maximum (C. elegans; Day 8): 4.926 mm; total distance traveled, Mean (C. elegans; Day 8): 1.627 mm; total distance traveled, Median (C. elegans; Day 8): 1.451 mm; total distance traveled, Minimum (C. elegans; Day 8): 0.2338 mm; age-related decline in mean velocity (C. elegans): attenuates the age-related decline in mean velocity; maximum velocity of aging animals (C. elegans): markedly improved; lifetime reproductive output (Wild type (N2)): small decrease; Early fertility (first 24 hours) (Wild type (N2)): not altered

— patent US20230172940A1, “METHODS OF EXTENDING LIFESPAN BY ADMINISTERING FERROPTOSIS INHIBITORS” (COLLABORATIVE MEDICINAL DEVELOPMENT, LLC, priority 2020, published 2023)
